Data as given in patent publication US11795190B2, “D-glycero-B-D-heptose 1-phosphate (HMP) conjugates and use for targeted immune modulation” (NATIONAL RESEARCH COUNCIL OF CANADA, priority 2017, dated 2023).

Experiments:
[1] = system: TIFA knockout (TIFA KO) HEK 293T cells encoding an NF-κB-driven luciferase reporter gene; test: NF-κB-driven luciferase reporter assay in TIFA knockout HEK 293T cells; type: cell-based, human; conditions: TIFA KO cells
Experimental: (§1) FIGS. 10A-B. Effect of chemically synthesised analogues on human embryonic kidney cells (HEK 293T) encoding an NF-κB-driven luciferase reporter gene. NF-κB luciferase activity was measured in wild type (WT) or TIFA knockout (TIFA KO) cells treated with compounds in the presence of digitonin for 20 min, washed, and then cultured in normal medium without the synthetic compounds for 6 hrs after treatment, before luciferase activity was measured. (A) Cells were treated with 10 μg/mL of the indicated compound. Data are means±standard error mean of technical triplicates. (B) Cells were treated with two different molar concentrations of compound (30 μM or 150 μM). Two batches of DD-β-HBP and DD-β-HMP synthesized independently of one another were tested (batch #1 and batch #2) to assess consistency of the chemical synthesis. Data are means±standard error mean of technical triplicates and are representative of three independent experiments. JS-12: D-glycero-D-manno-heptose; JS-2: D-glycero-D-manno-heptose 7-phosphate; JS-7:D-glycero-β-D-manno-heptose-phosphate; JS-8: D-glycero-α-D-manno-heptose-phosphate; JS-9: β-D-mannose phosphate; JS-6:D-glycero-β-D-manno heptose 1,7-biphosphate; JS-5: D-glycero-α-D-manno heptose 1,7-biphosphate.

[2] = system: HEK 293T cells encoding an NF-κB-driven luciferase reporter gene; test: NF-κB-driven luciferase reporter assay in HEK 293T cells; type: cell-based, human; conditions: FIG. 12; HEK 293T; 10, 30 or 50 μg/mL, digitonin 20 min, luciferase after 6 hours
Experimental: as §1
FIG. 12. Effects of compounds/products according to the invention on HEK 293T cells encoding an NF-κB-driven luciferase reporter gene. HEK 293T cells were transfected with a plasmid encoding an NF-κB-driven luciferase reporter. After 24 hours, cells were stimulated for 20 minutes in permeabilization buffer (5 μg/mL digitonin) in the presence of water or 10 μg/mL, 30 μg/mL, or 50 μg/mL of indicated synthetic compounds according to the invention. Treatment was removed; cells were washed and incubated for 6 hours incomplete medium. A luciferase assay was then performed. JS-12a control: D-glycero-D-manno heptose. The results are the means±standard error of the mean of three technical replicates. JS-10: 7-O-(Aminoethyl)-D-glycero-β-D-manno-heptopyranose phosphate; JS-11: 7-O-(Aminoethyl)-D-glycero-D-manno-heptopyranose; JS-12: D-glycero-D-manno-heptose; Js-13: pH-Rhodo-7-O-(aminoethyl)-D-glycero-β-D-manno-heptopyranose phosphate.
FIG. 14. Effects of compounds/products according to the invention on HEK 293T cells encoding an NF-κB-driven luciferase reporter gene. HEK 293T cells were transfected with a plasmid encoding an NF-κB-driven luciferase reporter. After 24 hours, cells were stimulated for 20 minutes in permeabilization buffer (5 μg/mL digitonin) in the presence of water, or either 30 μM or 150 μM of indicated synthetic compounds according to the invention. Treatment was removed; cells were washed and incubated for 6 hours in complete medium. A luciferase assay was then performed. […]

NCCOC[C@@H](O)C1O[C@@H](OP(=O)([O-])[O-])C(O)[C@@H](O)[C@@H]1O.[Na+].[Na+] (stereo partly drawn) [JS-10a, 7-O-(Aminoethyl)-D-glycero-β-D-manno-heptopyranose phosphate]
activity in TIFA KO cells (NF-κB luciferase), TIFA dependence ([1]; FIG. 12, 10, 30 or 50 μg/mL): relative absence of activity | activity in TIFA KO cells (NF-κB luciferase), TIFA dependence ([1]; FIG. 14, 30 μM or 150 μM): relative absence of activity | inflammatory response (NF-κB luciferase) [2]: modest inflammatory response
